Experimental data as given in patent US20200077658A1, “Pesticidal Compounds” (BASF SE, priority 2016, published 2020).

How the values were obtained:
Type in all cases: in vivo
[1] = system: yellow fever mosquito (Aedes aegypti); test: whole plant or invertebrate; conditions: 48 h, larval mortality visually assessed after 2 days, read-out: mortality in comparison with untreated controls
Procedure: For evaluating control of yellow fever mosquito (Aedes aegypti) the test unit consisted of 96-well-microtiter plates containing 200 μl of tap water per well and 5-15 freshly hatched A. aegypti larvae.
The active compounds were formulated using a solution containing 75% (v/v) water and 25% (v/v) DMSO. Different concentrations of formulated compounds or mixtures were sprayed onto the insect diet at 2.5 μl, using a custom built micro atomizer, at two replications.
After application, microtiter plates were incubated at 28±1° C., 80±5% RH for 2 days. Larval mortality was then visually assessed.

[2] = system: Orchid thrips (Dichromothrips corbetti); test: Action on orchid thrips (Dichromothrips corbetti), floral-immersion technique; conditions: adult thrips, mortality 72 hours after treatment, read-out: mortality in comparison with untreated controls
Procedure: Dichromothrips corbetti adults used for bioassay were obtained from a colony maintained continuously under laboratory conditions. For testing purposes, the test compound is diluted in a 1:1 mixture of acetone:water (vol:vol), plus Kinetic® HV at a rate of 0.01% v/v.
Thrips potency of each compound was evaluated by using a floral-immersion technique. All petals of individual, intact orchid flowers were dipped into treatment solution and allowed to dry in Petri dishes. Treated petals were placed into individual re-sealable plastic along with about 20 adult thrips. All test arenas were held under continuous light and a temperature of about 28° C. for duration of the assay. After 3 days, the numbers of live thrips were counted on each petal. The percent mortality was recorded 72 hours after treatment.

[3] = system: boll weevil (Anthonomus grandis); test: Action on boll weevil (Anthonomus grandis), 96-well microtiter plate diet test; conditions: 120 h, egg and larval mortality after 5 days, read-out: mortality in comparison with untreated controls
Procedure: For evaluating control of boll weevil (Anthonomus grandis) the test unit consisted of 96-well-microtiter plates containing an insect diet and 5-10 A. grandis eggs.
The compounds were formulated using a solution containing 75% v/v water and 25% v/v DMSO. Different concentrations of formulated compounds were sprayed onto the insect diet at 5 μl, using a custom built micro atomizer, at two replications.
After application, microtiter plates were incubated at about 25±1° C. and about 75±5% relative humidity for 5 days. Egg and larval mortality was then visually assessed.

[4] = system: Silverleaf Whitefly (Bemisia argentifoli) (Adults); test: Action on silverleaf whitefly (Bemisia argentifoli) adults, sprayed cotton plants; conditions: Bemisia argentifolii, 72 h, 3 days after treatment, read-out: mortality in comparison with untreated controls
Procedure: The active compounds were formulated by a Tecan liquid handler in 100% cyclohexanone as a 10,000 ppm solution supplied in tubes. The 10,000 ppm solution was serially diluted in 100% cyclohexanone to make interim solutions. These served as stock solutions for which final dilutions were made by the Tecan in 50% acetone:50% water (v/v) into 5 or 10 ml glass vials. A nonionic surfactant (Kinetic®) was included in the solution at a volume of 0.01% (v/v). The vials were then inserted into an automated electrostatic sprayer equipped with an atomizing nozzle for application to plants/insects.
Cotton plants at the cotyledon stage (one plant per pot) were sprayed by an automated electrostatic plant sprayer equipped with an atomizing spray nozzle. The plants were dried in the sprayer fume hood and then removed from the sprayer. Each pot was placed into a plastic cup and about 10 to 12 whitefly adults (approximately 3-5 days old) were introduced. The insects were collected using an aspirator and a nontoxic Tygon® tubing connected to a barrier pipette tip. The tip, containing the collected insects, was then gently inserted into the soil containing the treated plant, allowing insects to crawl out of the tip to reach the foliage for feeding. Cups were covered with a reusable screened lid. Test plants were maintained in a growth room at about […] and about 20-40% relative humidity for 3 days, avoiding direct exposure to fluorescent light (24 hour photoperiod) to prevent trapping of heat inside the cup. Mortality was assessed 3 days after treatment, compared to untreated control plants.

[5] = system: tobacco budworm (Heliothis virescens); test: Action on tobacco budworm (Heliothis virescens), 96-well microtiter plate diet test; conditions: 120 h, egg and larval mortality after 5 days, read-out: mortality in comparison with untreated controls
Procedure: For evaluating control of tobacco budworm (Helliothis virescens) the test unit consisted of 96-well-microtiter plates containing an insect diet and 15-25 H. virescens eggs.
The compounds were formulated using a solution containing 75% v/v water and 25% v/v DMSO. Different concentrations of formulated compounds were sprayed onto the insect diet at 10 μl, using a custom built micro atomizer, at two replications.
After application, microtiter plates were incubated at about 28±1° C. and about 80±5% relative humidity for 5 days. Egg and larval mortality was then visually assessed.

[6] = system: Diamond Back Moth (Plutella xylostella); test: Action on diamond back moth (Plutella xylostella), cabbage leaf dip; conditions: foliar, 3rd instar larvae on dipped cabbage leaves, 72 hours after treatment, read-out: mortality in comparison with untreated controls
Procedure: The active compound is dissolved at the desired concentration in a mixture of 1:1 (vol:vol) distilled water:acetone. Surfactant (Kinetic® HV) is added at a rate of 0.01% (vol/vol).The test solution is prepared at the day of use.
Leaves of cabbage were dipped in test solution and air-dried. Treated leaves were placed in petri dishes lined with moist filter paper and inoculated with ten 3rd instar larvae. Mortality was recorded 72 hours after treatment. Feeding damages were also recorded using a scale of 0-100%.

[7] = system: Southern Armyworm (Spodoptera eridania), 2nd Instar Larvae; test: Action on southern armyworm (Spodoptera eridania), 2nd instar larvae, sprayed lima bean plants; conditions: 96 h, 2nd instar larvae on lima bean, 4 days after treatment, read-out: mortality in comparison with untreated controls
Procedure: The active compounds were formulated by a Tecan liquid handler in 100% cyclohexanone as a 10,000 ppm solution supplied in tubes. The 10,000 ppm solution was serially diluted in 100% cyclohexanone to make interim solutions. These served as stock solutions for which final dilutions were made by the Tecan in 50% acetone:50% water (v/v) into 10 or 20 ml glass vials. A nonionic surfactant (Kinetic®) was included in the solution at a volume of 0.01% (v/v). The vials were then inserted into an automated electrostatic sprayer equipped with an atomizing nozzle for application to plants/insects.
Lima bean plants (variety Sieva) were grown 2 plants to a pot and selected for treatment at the 1st true leaf stage. Test solutions were sprayed onto the foliage by an automated electrostatic plant sprayer equipped with an atomizing spray nozzle. The plants were dried in the sprayer fume hood and then removed from the sprayer. Each pot was placed into perforated plastic bags with a zip closure. About 10 to 11 armyworm larvae were placed into the bag and the bags zipped closed. Test plants were maintained in a growth room at about 250C and about 20-40% relative humidity for 4 days, avoiding direct exposure to fluorescent light (24 hour photoperiod) to prevent trapping of heat inside the bags. Mortality and reduced feeding were assessed 4 days after treatment, compared to untreated control plants.

CC(/C=N/NC(=S)Nc1ccccc1C(C)C)=C\c1cnc(N(C)c2ccc(OC(F)(F)F)cc2)nc1 [Compound C-6, 1-(2-isopropylphenyl)-3-[(E)-[(E)-2-methyl-3-[2-[N-methyl-4-(trifluoromethoxy)anilino]pyrimidin-5-yl]prop-2-enylidene]amino]thiourea]
≥ 75%: mortality at 800 ppm [1] | mortality at 500 ppm [2] | mortality at 800 ppm [3] | mortality at 300 ppm [4] | mortality at 800 ppm [5] | mortality at 500 ppm [6] | mortality at 300 ppm [7]

CC(/C=N/NC(=S)Nc1ccccc1C(C)C)=C\c1cnc(N(C)c2ccc(OC(F)(F)F)cc2)nc1C [Compound C-16, 1-(2-isopropylphenyl)-3-[(E)-[(E)-2-methyl-3-[4-methyl-2-[N-methyl-4-(trifluoromethoxy)anilino]pyrimidin-5-yl]prop-2-enylidene]amino]thiourea]
≥ 75%: mortality at 800 ppm [1] | mortality at 500 ppm [2] | mortality at 800 ppm [3] | mortality at 300 ppm [4] | mortality at 800 ppm [5] | mortality at 500 ppm [6] | mortality at 300 ppm [7]

CC(/C=N/N=C1\SCC(=O)N1c1ccccc1C(C)C)=C\c1cnc(Nc2ccc(OC(F)(F)F)cc2)nc1 [Compound C-3, (2Z)-3-(2-isopropylphenyl)-2-[(E)-[(E)-2-methyl-3-[2-[4-(trifluoromethoxy)anilino]pyrimidin-5-yl]prop-2-enylidene]hydrazono]thiazolidin-4-one]
≥ 75%: mortality at 800 ppm [1] | mortality at 500 ppm [2] | mortality at 800 ppm [3] | mortality at 300 ppm [4] | mortality at 800 ppm [5] | mortality at 500 ppm [6] | mortality at 300 ppm [7]

CC(C)c1ccccc1N1C(=O)CS\C1=N/N=C/C=C/c1cnc(N(C)c2ccc(OC(F)(F)F)cc2)nc1 [Compound C-5, (2Z)-3-(2-isopropylphenyl)-2-[(E)-[(E)-3-[2-[N-methyl-4-(trifluoromethoxy)anilino]pyrimidin-5-yl]prop-2-enylidene]hydrazono]thiazolidin-4-one]
≥ 75%: mortality at 800 ppm [1] | mortality at 500 ppm [2] | mortality at 800 ppm [3] | mortality at 300 ppm [4] | mortality at 800 ppm [5] | mortality at 500 ppm [6] | mortality at 300 ppm [7]

CO[C@@H]1[C@@H](OC)[C@@H](OC)C(O/N=C/C(C)=C/c2cnc(N(C)c3ccc(OC(F)(F)F)cc3)nc2)O[C@H]1C (stereo partly drawn) [Compound C-23, N-methyl-5-[(E,3E)-2-methyl-3-[(3R,4R,5S,6S)-3,4,5-trimethoxy-6-methyl-tetrahydropyran-2-yl]oxyimino-prop-1-enyl]-N-[4-(trifluoromethoxy)phenyl]pyrimidin-2-amine]
≥ 75%: mortality at 800 ppm [1] | mortality at 500 ppm [2] | mortality at 800 ppm [3] | mortality at 300 ppm [4] | mortality at 800 ppm [5] | mortality at 500 ppm [6] | mortality at 300 ppm [7]

CC(/C=N/N=C1\SCC(=O)N1c1ccccc1C(C)C)=C\c1cnc(N(C)c2ccc(OC(F)(F)F)cc2)nc1C [Compound C-17, (2Z)-3-(2-isopropylphenyl)-2-[(E)-[(E)-2-methyl-3-[4-methyl-2-[N-methyl-4-(trifluoromethoxy)anilino]pyrimidin-5-yl]prop-2-enylidene]hydrazono]thiazolidin-4-one]
≥ 75%: mortality at 800 ppm [1] | mortality at 500 ppm [2] | mortality at 800 ppm [3] | mortality at 300 ppm [4] | mortality at 800 ppm [5] | mortality at 500 ppm [6] | mortality at 300 ppm [7]
